# Results taken from US20250230193A1, “CYCLIC COMPOUND HAVING SELECTIVE KRAS INHIBITORY EFFECT ON HRAS AND NRAS” (CHUGAI SEIYAKU KABUSHIKI KAISHA, priority 2022, published 2025).
# Where a SMILES comes first, the peptide text is derived from it. Bridges are numbered along the chain shown (N, C = ends). [ ]: non-standard residue; d: D form. The star is where a group is joined. hPhe(3-Cl-4-CF3) = N[C@@H](CCc1ccc(C(F)(F)F)c(Cl)c1)C(=O)O; NPrPhe(4-CF3) = CCCN[C@@H](Cc1ccc(C(F)(F)F)cc1)C(=O)O; NMeGly(cPent) = CN[C@H](C(=O)O)C1CCCC1; Pro(4,4-F2) = O=C(O)[C@@H]1CC(F)(F)CN1; Gly(cBu) = N[C@H](C(=O)O)C1CCC1; NMeD = CN[C@@H](CC(=O)O)C(=O)O; NMeL = CN[C@@H](CC(C)C)C(=O)O; Morpholide = C1CN(*)CCO1; Ac5c = NC1(C(=O)O)CCCC1; Aze = O=C(O)[C@@H]1CCN1; Ac4c = NC1(C(=O)O)CCC1; Sar = CNCC(=O)O
# How the values were obtained:
# [1] = molecular target: GDP-bound NRAS wild-type protein (Homo sapiens, UniProt P01111); assay: Binding to NRAS by surface plasmon resonance (SPR), Single Cycle Kinetics; details: for NRAS/KRAS (ratio of KD value with respect to NRAS to KD value with respect to KRAS): GDP-bound NRAS wild-type vs GDP-bound KRAS wild-type
# [2] = molecular target: GDP-bound HRAS wild-type protein (Homo sapiens, UniProt P01112); assay: Binding to HRAS by surface plasmon resonance (SPR), Single Cycle Kinetics; details: for HRAS/KRAS (ratio of KD value with respect to HRAS to KD value with respect to KRAS): GDP-bound HRAS wild-type vs GDP-bound KRAS wild-type
# [3] = SPR, GDP-bound wild-type proteins
# Chain of GDP-bound HRAS wild-type protein (P01112 whole entry): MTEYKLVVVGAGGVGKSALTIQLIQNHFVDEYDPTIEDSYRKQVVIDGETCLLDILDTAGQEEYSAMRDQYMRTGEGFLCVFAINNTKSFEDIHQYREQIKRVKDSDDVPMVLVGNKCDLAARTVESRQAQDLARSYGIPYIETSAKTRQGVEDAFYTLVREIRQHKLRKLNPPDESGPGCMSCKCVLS
# Chain of GDP-bound NRAS wild-type protein (P01111 whole entry): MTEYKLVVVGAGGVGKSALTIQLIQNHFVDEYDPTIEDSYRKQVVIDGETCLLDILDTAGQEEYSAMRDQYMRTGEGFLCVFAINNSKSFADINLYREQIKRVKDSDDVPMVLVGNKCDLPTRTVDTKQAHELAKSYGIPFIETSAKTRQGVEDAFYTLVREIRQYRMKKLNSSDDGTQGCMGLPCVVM
compound,measurement,setting,value
"CCCN1C(=O)[C@@H]2CCN2C(=O)CN(C)C(=O)[C@H]([C@@H](C)CC)NC(=O)[C@H](CC(C)C)N(C)C(=O)C[C@@H](C(=O)N2CCOCC2)N(C)C(=O)[C@H](C2CCCC2)N(C)C(=O)C2(CCC2)NC(=O)[C@@H]2CC(F)(F)CN2C(=O)[C@H](CCc2ccc(C(F)(F)F)c(Cl)c2)NC(=O)CN(C)C(=O)[C@@H]1Cc1ccc(C(F)(F)F)cc1 [PP0409] ([NMeL]I[Sar][Aze][NPrPhe(4-CF3)][Sar][hPhe(3-Cl-4-CF3)][Pro(4,4-F2)][Ac4c][NMeGly(cPent)][NMeD]-Morpholide; lactam N-11)",NRAS/KRAS (ratio of KD value with respect to GDP-bound NRAS wild-type protein to KD value with respect to KRAS),[1]; SPR,C (A compound having a KD ratio of 0.1 or more and less than 3 is denoted as C)
same,HRAS/KRAS (ratio of KD value with respect to GDP-bound HRAS wild-type protein to KD value with respect to KRAS),[2]; SPR,C (A compound having a KD ratio of 0.1 or more and less than 3 is denoted as C)
CCO[C@@H]1C[C@H]2C(=O)NC3(CCC3)C(=O)N(C)[C@@H](C3CCCC3)C(=O)N(C)[C@H](C(=O)N3CCOCC3)CC(=O)N(C)[C@@H](CC(F)F)C(=O)N[C@@H]([C@@H](C)CC)C(=O)N(C)CC(=O)N(C)[C@H]3CCCCCN(C3=O)[C@@H](Cc3ccc(F)cc3)C(=O)N(C)CC(=O)N[C@@H](CCc3cc(F)c(C(F)(F)F)c(F)c3)C(=O)N2C1 [PP1177],NRAS/KRAS (ratio of KD value with respect to NRAS to KD value with respect to KRAS),"[1]; KD ratio, SPR",B (a compound having 3 or more and less than 10 is denoted as B)
same,HRAS/KRAS (ratio of KD value with respect to HRAS to KD value with respect to KRAS),"[2]; KD ratio, SPR",B (a compound having 3 or more and less than 10 is denoted as B)
"CCC[C@H]1C(=O)N[C@@H]([C@@H](C)CC)C(=O)N(C)CC(=O)N(C)[C@H]2C/C=C\CCN(C2=O)[C@@H](Cc2ccc(C)cc2)C(=O)N(C)CC(=O)N[C@@H](CCc2ccc(C(F)(F)F)c(OC)c2)C(=O)N2C[C@H](OCC)C[C@H]2C(=O)N(C)C2(CCC2)C(=O)N(C)[C@@H](C2CCCC2)C(=O)N(C)[C@H](C(=O)N2CCCC2)CC(=O)N1C [PP3106, (2S,8S,12R,14S,20S,23S,27S,30S,36S,38Z)-20-cyclopentyl-12-ethoxy-8-[2-[3-methoxy-4-(trifluoromethyl)phenyl]ethyl]-4,16,19,22,26,32,35-heptamethyl-30-[(1S)-1-methylpropyl]-27-propyl-2-(p-tolylmethyl)-23-(pyrrolidine-1-carbonyl)spiro[1,4,7,10,16,19,22,26,29,32,35-undecazatricyclo[34.5.1.0^10,14]dotetracont-38-ene-17,1′-cyclobutane]-3,6,9,15,18,21,25,28,31,34,42-undecone]",NRAS/KRAS (ratio of KD value with respect to GDP-bound NRAS wild-type protein to KD value with respect to KRAS),[1]; [3],A (a compound having 10 or more and less than 20 is denoted as A)
same,HRAS/KRAS (ratio of KD value with respect to GDP-bound HRAS wild-type protein to KD value with respect to KRAS),[2]; [3],A (a compound having 10 or more and less than 20 is denoted as A)
CCCN1C(=O)CN(C)C(=O)[C@@H]2CCN2C(=O)[C@H](C2CCC2)NC(=O)[C@H](CC(C)C)N(C)C(=O)C[C@@H](C(=O)N2CCOCC2)N(C)C(=O)[C@H](C2CCCC2)N(C)C(=O)C2(CCCC2)NC(=O)[C@@H]2CCCN2C(=O)[C@H](CCc2ccc(C(F)(F)F)c(Cl)c2)NC(=O)CN(C)C(=O)[C@@H]1Cc1ccc(C(F)(F)F)cc1 [PP0305] ([NMeL][Gly(cBu)][Aze][Sar][NPrPhe(4-CF3)][Sar][hPhe(3-Cl-4-CF3)]P[Ac5c][NMeGly(cPent)][NMeD]-Morpholide; lactam N-11),NRAS/KRAS (ratio of KD for GDP-bound NRAS wild-type to KD for KRAS),[1]; SPR,B (a compound having 3 or more and less than 10 is denoted as B)
same,HRAS/KRAS (ratio of KD for GDP-bound HRAS wild-type to KD for KRAS),[2]; SPR,C (A compound having a KD ratio of 0.1 or more and less than 3 is denoted as C)
CC[C@H](C)[C@@H]1NC(=O)[C@H](CC(C)C)N(C)C(=O)C[C@@H](C(=O)N2CCOCC2)N(C)C(=O)[C@H](CC(F)(F)F)N(C)C(=O)C2(CCCC2)NC(=O)[C@@H]2CCCN2C(=O)[C@H](CCc2cc(F)c(C(F)(F)F)c(F)c2)NC(=O)CN(C)C(=O)[C@H](Cc2ccc(C(F)(F)F)cc2)N2CCCC[C@@H](C2=O)N(C)C(=O)CN(C)C1=O [PP0568],NRAS/KRAS (ratio of KD value with respect to GDP-bound NRAS wild-type protein to KD value with respect to KRAS),[1]; SPR,B (a compound having 3 or more and less than 10 is denoted as B)
same,HRAS/KRAS (ratio of KD value with respect to GDP-bound HRAS wild-type protein to KD value with respect to KRAS),[2]; SPR,B (a compound having 3 or more and less than 10 is denoted as B)
"CCCN1C(=O)CN(C)C(=O)[C@@H]2CCN2C(=O)[C@H]([C@@H](C)CC)NC(=O)[C@H](CC(C)C)N(C)C(=O)C[C@@H](C(=O)N(C)C)NC(=O)[C@H](C2CCCC2)N(C)C(=O)C2(CCC2)NC(=O)[C@@H]2CC(F)(F)CN2C(=O)[C@H](CCc2ccc(C(F)(F)F)c(Cl)c2)NC(=O)CN(C)C(=O)[C@@H]1Cc1ccc(C(F)(F)F)cc1 [PP0376] ([NMeL]I[Aze][Sar][NPrPhe(4-CF3)][Sar][hPhe(3-Cl-4-CF3)][Pro(4,4-F2)][Ac4c][NMeGly(cPent)]D-NMe2; lactam N-11)",NRAS/KRAS (ratio of KD for GDP-bound NRAS wild-type to KD for KRAS),[1]; SPR,B (a compound having 3 or more and less than 10 is denoted as B)
same,HRAS/KRAS (ratio of KD for GDP-bound HRAS wild-type to KD for KRAS),[2]; SPR,B (a compound having 3 or more and less than 10 is denoted as B)
CCO[C@@H]1C[C@H]2C(=O)N(C)C3(CC(C)(C)C3)C(=O)N(C)[C@@H](C3CCCC3)C(=O)N(C)[C@H](C(=O)N(C)C)CC(=O)N(C)[C@H]3CCCCCCc4ccc(cc4)C[C@@H](C(=O)N(C)CC(=O)N[C@@H](CCc4ccc(C(F)(F)F)c(OC)c4)C(=O)N2C1)N1CC/C=C\C[C@@H](C1=O)N(C)C(=O)CN(C)C(=O)[C@H]([C@@H](C)CC)NC3=O [PP3090],NRAS/KRAS (ratio of KD value with respect to GDP-bound NRAS wild-type protein to KD value with respect to KRAS),[1]; [3],A (a compound having 10 or more and less than 20 is denoted as A)
same,HRAS/KRAS (ratio of KD value with respect to GDP-bound HRAS wild-type protein to KD value with respect to KRAS),[2]; [3],B (a compound having 3 or more and less than 10 is denoted as B)
CCC[C@H]1C(=O)N[C@@H]([C@@H](C)CC)C(=O)N(C)CC(=O)N(C)[C@H]2C/C=C\CCN(C2=O)[C@@H](CC2CCC(F)(F)CC2)C(=O)N(C)CC(=O)N[C@@H](CCc2ccc(C(F)(F)F)c(OC)c2)C(=O)N2C[C@H](OCC)C[C@H]2C(=O)NC2(CC(C)(C)C2)C(=O)N(C)[C@@H](C(CC)CC)C(=O)N(C)[C@H](C(=O)N(C)C)CC(=O)N1C [PP2482],NRAS/KRAS (ratio of KD value with respect to NRAS to KD value with respect to KRAS),[1]; SPR,A (a compound having 10 or more and less than 20 is denoted as A)
same,HRAS/KRAS (ratio of KD value with respect to HRAS to KD value with respect to KRAS),[2]; SPR,A (a compound having 10 or more and less than 20 is denoted as A)
CCC[C@H]1C(=O)N[C@@H]([C@@H](C)CC)C(=O)N(C2CC2)CC(=O)N(C)[C@H]2C/C=C\CCN(C2=O)[C@@H](Cc2ccc(C)cc2)C(=O)N(C)CC(=O)N[C@@H](CCc2ccc(Cl)c(Cl)c2)C(=O)N2C[C@H](OCC)C[C@H]2C(=O)NC2(CC(C)(C)C2)C(=O)N(C)[C@@H](CC2CC2)C(=O)N(C)[C@H](C(=O)N(C)C)CC(=O)N1C [PP2805],NRAS/KRAS (ratio of KD value with respect to GDP-bound NRAS wild-type protein to KD value with respect to KRAS),[1]; class symbols,A (a compound having 10 or more and less than 20 is denoted as A)
same,HRAS/KRAS (ratio of KD value with respect to GDP-bound HRAS wild-type protein to KD value with respect to KRAS),[2]; class symbols,A (a compound having 10 or more and less than 20 is denoted as A)
CCO[C@@H]1C[C@H]2C(=O)NC3(CC(C)(C)C3)C(=O)N(C)[C@@H](C3CCCC3)C(=O)N(C)[C@H](C(=O)N(C)CC)CC(=O)N(C)[C@@H](C(C)C)C(=O)N[C@@H]([C@@H](C)CC)C(=O)N(C)CC(=O)N(C)[C@H]3C/C=C\CCN(C3=O)[C@@H](Cc3ccc(C(F)(F)F)cc3)C(=O)N(C)CC(=O)N[C@@H](CCc3cc(F)c(C(F)(F)F)c(F)c3)C(=O)N2C1 [PP2034],NRAS/KRAS (ratio of KD value with respect to NRAS to KD value with respect to KRAS),[1]; SPR,A (a compound having 10 or more and less than 20 is denoted as A)
same,HRAS/KRAS (ratio of KD value with respect to HRAS to KD value with respect to KRAS),[2]; SPR,A (a compound having 10 or more and less than 20 is denoted as A)
